Results reported in patent US9247759B2, “Identification of human T2R receptors that respond to bitter compounds that elicit the bitter taste in compositions, and the use thereof in assays to identify compounds that inhibit (block) bitter taste in compositions and use thereof” (SENOMYX, INC., priority 2007, dated 2016).
Like-named read-outs stand apart in the source and are kept apart here.

Tests used:
hT2R7 = hT2R7 (Homo sapiens (Human), UniProt Q9NYW3); assay: hT2R panel inhibition, transient HEK293 G16g44, agonist Chloroquine pH6.5 10 mM; type: cell-based; conditions: HEK293, compound at 25 μM
Method in brief: (§1)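 Functional inhibition format: single hT2R transient expression in a G16g44-stable line, bitter agonist at EC80, test compound effect expressed as reduction in receptor activity.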

hT2R63 = assay: hT2R panel inhibition, transient HEK293 G16g44, agonist Caffeine 1 mM or Andrographolide 100 μM; type: cell-based, human; conditions: compound at 25 μM; for screening result against bitter receptor 63: receptor activated to EC80 with the corresponding agonist; for inhibition of bitter receptor 63: receptor activated to EC80 with agonist
Method in brief: as §1

hT2R9 = hT2R9 (Homo sapiens (Human), UniProt Q9NYW1); assay: hT2R panel inhibition, transient HEK293 G16g44, agonist Ofloxacin 1 mM; type: cell-based; conditions: HEK293, compound at 25 μM
Method in brief: as §1

hT2R55 = assay: hT2R panel inhibition, transient HEK293 G16g44, agonist Cinchonine 150 μM; type: cell-based, human; conditions: compound at 25 μM; for screening result against bitter receptor 55: receptor activated to EC80 with the corresponding agonist
Method in brief: as §1

hT2R16 = hT2R16 (Homo sapiens (Human), UniProt Q9NYV7); assay: hT2R panel inhibition, transient HEK293 G16g44, agonist Salicin 1 mM; type: cell-based; conditions: HEK293, compound at 25 μM
Method in brief: as §1

hT2R14 [1] = target: T1, hT2R14 (Homo sapiens (Human), UniProt Q9NYV8); assay: hT2R panel inhibition, transient HEK293 G16g44, agonist Aristolochic Acid 2 μM; type: cell-based; conditions: for inhibition at 25 µM: HEK293, compound at 25 μM
Method in brief: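 Agonist challenge was at EC80, with 0.5 mM andrographolide on hT2R8 and 2 μM aristolochic acid on hT2R14. Inhibition was measured in functional assays in HEK293 cells that stably carry the promiscuous G protein G16g44 and were transiently transfected with the individual receptor.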

hT2R44 = assay: hT2R panel inhibition, transient HEK293 G16g44, agonist Denatonium 0.5 μM; type: cell-based, human; conditions: compound at 25 μM; for screening result against bitter receptor 44: receptor activated to EC80 with the corresponding agonist; for inhibition of bitter receptor 44: receptor activated to EC80 with agonist
Method in brief: as §1

hT2R14 [2] = target: T1, hT2R14; assay: hT2R14 antagonist high-throughput FLIPR assay, stable cell line with G16g44, agonist aristolochic acid; type: cell-based; conditions: read-out: IC50 on hT2R14 bitter receptor
Method in brief: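 Compounds were co-applied with 3 μM aristolochic acid, a dose set to reach 70-80% of maximal hT2R14 activation. Read-out was FLIPR fluorescence in a stable HEK293 line co-expressing hT2R14 and G16g44.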

hT2R71 = hT2R71 (Homo sapiens (Human), UniProt P59536); assay: hT2R panel inhibition, transient HEK293 G16g44, agonist Picric Acid 10 μM; type: cell-based; conditions: for inhibition at 25 µM: HEK293, compound at 25 μM
Method in brief: as §1

hT2R61 = hT2R61 (Homo sapiens (Human), UniProt P59537); assay: hT2R panel inhibition, transient HEK293 G16g44, agonist Aristolochic Acid 25 nM; type: cell-based; conditions: for inhibition at 25 µM: HEK293, compound at 25 μM
Method in brief: as §1

hT2R65 = assay: hT2R panel inhibition, transient HEK293 G16g44, agonist Oleuropein 1 mM; type: cell-based, human; conditions: compound at 25 μM; for screening result against bitter receptor 65: receptor activated to EC80 with the corresponding agonist
Method in brief: as §1

hT2R3 = hT2R3 (Homo sapiens (Human), UniProt Q9NYW6); assay: hT2R panel inhibition, transient HEK293 G16g44, agonist Chloroquine pH6.5 50 μM; type: cell-based; conditions: for inhibition at 25 µM: HEK293, compound at 25 μM
Method in brief: as §1

hT2R10 = hT2R10 (Homo sapiens (Human), UniProt Q9NYW0); assay: hT2R panel inhibition, transient HEK293 G16g44, agonist Strychnine 50 μM; type: cell-based
hT2R64 = hT2R64 (Homo sapiens (Human), UniProt P59538); assay: hT2R panel inhibition, transient HEK293 G16g44, agonist Aristolochic Acid 1 μM; type: cell-based; conditions: for inhibition at 25 µM: HEK293, compound at 25 μM
Method in brief: as §1

hT2R5 = hT2R5 (Homo sapiens (Human), UniProt Q9NYW4); assay: hT2R panel inhibition, transient HEK293 G16g44, agonist Picoline 10 mM; type: cell-based; conditions: HEK293, compound at 25 μM; receptor activated to EC80 with the corresponding agonist; read-out: screening result against bitter receptor 5
Method in brief: as §1

hT2R75 = hT2R75 (Homo sapiens (Human), UniProt P59540); assay: hT2R panel inhibition, transient HEK293 G16g44, agonist Strychnine 1 μM; type: cell-based; conditions: receptor activated to EC80 with the corresponding agonist; for inhibition at 25 µM: HEK293, read-out: screening result against bitter receptor 75, compound at 25 μM
hT2R13 = hT2R13 (Homo sapiens (Human), UniProt Q9NYV9); assay: hT2R panel inhibition, transient HEK293 G16g44, agonist Oxyphenonium 1 mM; type: cell-based; conditions: HEK293, compound at 25 μM
Method in brief: as §1

hT2R51 = hT2R51 (Homo sapiens (Human), UniProt P59533); assay: hT2R panel inhibition, transient HEK293 G16g44, agonist Prop 2.5 μM; type: cell-based; conditions: for inhibition at 25 µM: HEK293, compound at 25 μM
Method in brief: as §1

hT2R67 = assay: hT2R panel inhibition, transient HEK293 G16g44, agonist Andrographolide 5 μM; type: cell-based, human; conditions: compound at 25 μM
Method in brief: as §1

hT2R54 = assay: hT2R panel inhibition, transient HEK293 G16g44, agonist Ranitidine 5 mM; type: cell-based, human; conditions: compound at 25 μM
Method in brief: as §1

hT2R4 = hT2R4 (Homo sapiens (Human), UniProt Q9NYW5); assay: hT2R panel inhibition, transient HEK293 G16g44, agonist Chloroquine pH6.5 5 mM; type: cell-based; conditions: HEK293, compound at 25 μM; receptor activated to EC80 with agonist; read-out: inhibition of bitter receptor 4
Method in brief: as §1

[3] = receptor activated to EC80 with the corresponding agonist, read-out: screening result against bitter receptor 7
[4] = receptor activated to EC80 with the corresponding agonist, read-out: screening result against bitter receptor 9
[5] = receptor activated to EC80 with the corresponding agonist, read-out: screening result against bitter receptor 16
[6] = receptor activated to EC80 with the corresponding agonist, read-out: screening result against bitter receptor 14
[7] = receptor activated to EC80 with the corresponding agonist, read-out: screening result against bitter receptor 71
[8] = receptor activated to EC80 with the corresponding agonist, read-out: screening result against bitter receptor 3
[9] = HEK293, read-out: screening result against bitter receptor 10, compound at 25 μM, receptor activated to EC80 with the corresponding agonist
[10] = receptor activated to EC80 with the corresponding agonist, read-out: screening result against bitter receptor 64
[11] = receptor activated to EC80 with the corresponding agonist, read-out: screening result against bitter receptor 13
[12] = receptor activated to EC80 with agonist, read-out: inhibition of bitter receptor 7
[13] = receptor activated to EC80 with agonist, read-out: inhibition of bitter receptor 14
[14] = receptor activated to EC80 with agonist, read-out: inhibition of bitter receptor 61
[15] = receptor activated to EC80 with agonist, read-out: inhibition of bitter receptor 13
[16] = receptor activated to EC80 with agonist
[17] = compound at 25 μM, receptor activated to EC80 with the corresponding agonist
[18] = receptor activated to EC80 with the corresponding agonist

Sequence of hT2R16 (Q9NYV7 whole entry): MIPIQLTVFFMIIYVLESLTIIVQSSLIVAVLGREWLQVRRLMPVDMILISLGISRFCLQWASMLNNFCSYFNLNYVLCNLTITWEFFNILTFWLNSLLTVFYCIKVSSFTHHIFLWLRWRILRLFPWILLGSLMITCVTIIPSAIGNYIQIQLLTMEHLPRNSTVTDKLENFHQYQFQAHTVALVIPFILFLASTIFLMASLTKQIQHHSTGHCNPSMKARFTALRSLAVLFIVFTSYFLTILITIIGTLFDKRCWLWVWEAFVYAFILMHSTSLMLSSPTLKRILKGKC
Sequence of hT2R64 (P59538 whole entry): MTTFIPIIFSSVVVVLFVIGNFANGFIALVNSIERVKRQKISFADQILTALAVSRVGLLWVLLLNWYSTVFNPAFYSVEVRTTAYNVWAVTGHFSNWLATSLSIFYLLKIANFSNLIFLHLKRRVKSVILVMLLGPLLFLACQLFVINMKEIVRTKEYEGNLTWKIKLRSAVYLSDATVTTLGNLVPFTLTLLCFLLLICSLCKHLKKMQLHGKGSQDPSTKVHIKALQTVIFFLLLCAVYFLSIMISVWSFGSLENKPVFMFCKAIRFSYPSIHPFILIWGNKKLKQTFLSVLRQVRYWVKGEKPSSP
Sequence of hT2R51 (P59533 whole entry): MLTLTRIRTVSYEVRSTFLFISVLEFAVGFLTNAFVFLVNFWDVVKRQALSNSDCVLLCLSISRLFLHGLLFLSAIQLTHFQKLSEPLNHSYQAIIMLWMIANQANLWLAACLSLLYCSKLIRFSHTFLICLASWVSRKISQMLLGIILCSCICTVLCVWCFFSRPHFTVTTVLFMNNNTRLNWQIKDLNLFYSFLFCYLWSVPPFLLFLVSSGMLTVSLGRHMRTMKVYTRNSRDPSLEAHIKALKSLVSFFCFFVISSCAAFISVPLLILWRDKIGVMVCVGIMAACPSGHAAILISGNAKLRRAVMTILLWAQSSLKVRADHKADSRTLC
Sequence of hT2R71 (P59536 whole entry): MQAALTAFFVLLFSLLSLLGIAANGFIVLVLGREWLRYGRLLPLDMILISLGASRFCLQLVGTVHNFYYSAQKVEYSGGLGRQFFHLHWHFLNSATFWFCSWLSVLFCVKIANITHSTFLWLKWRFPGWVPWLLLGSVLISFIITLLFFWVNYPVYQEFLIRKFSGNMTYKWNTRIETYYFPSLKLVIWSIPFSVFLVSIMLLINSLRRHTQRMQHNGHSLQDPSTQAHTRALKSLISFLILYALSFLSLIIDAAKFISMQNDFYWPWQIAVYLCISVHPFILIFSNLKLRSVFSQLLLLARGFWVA
Sequence of hT2R75 (P59540 whole entry): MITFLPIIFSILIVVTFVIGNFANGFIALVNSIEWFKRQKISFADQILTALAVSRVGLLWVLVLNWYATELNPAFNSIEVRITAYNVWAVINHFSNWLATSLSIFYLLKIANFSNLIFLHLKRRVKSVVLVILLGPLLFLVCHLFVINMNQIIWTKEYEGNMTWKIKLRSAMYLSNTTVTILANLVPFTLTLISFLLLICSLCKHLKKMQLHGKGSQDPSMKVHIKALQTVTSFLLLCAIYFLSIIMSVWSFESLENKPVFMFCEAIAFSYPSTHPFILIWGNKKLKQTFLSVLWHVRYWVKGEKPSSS
T1 sequence (Q9NYV8 whole entry): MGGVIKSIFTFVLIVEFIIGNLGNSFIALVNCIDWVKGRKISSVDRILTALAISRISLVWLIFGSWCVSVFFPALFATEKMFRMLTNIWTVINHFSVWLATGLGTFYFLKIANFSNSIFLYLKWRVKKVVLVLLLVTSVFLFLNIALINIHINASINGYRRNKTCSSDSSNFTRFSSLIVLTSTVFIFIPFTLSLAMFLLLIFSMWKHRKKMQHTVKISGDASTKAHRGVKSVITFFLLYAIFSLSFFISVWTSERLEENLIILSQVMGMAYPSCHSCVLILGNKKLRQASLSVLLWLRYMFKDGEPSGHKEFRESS
Sequence of hT2R13 (Q9NYV9 whole entry): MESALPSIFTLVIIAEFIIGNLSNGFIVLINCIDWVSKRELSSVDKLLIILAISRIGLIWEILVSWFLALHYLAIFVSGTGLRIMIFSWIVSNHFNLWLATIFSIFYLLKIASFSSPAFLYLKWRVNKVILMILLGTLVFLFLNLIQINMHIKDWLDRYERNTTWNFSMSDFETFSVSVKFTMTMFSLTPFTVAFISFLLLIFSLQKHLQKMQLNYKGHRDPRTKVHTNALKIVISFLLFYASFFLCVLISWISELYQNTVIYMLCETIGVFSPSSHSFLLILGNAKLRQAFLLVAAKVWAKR
Sequence of hT2R9 (Q9NYW1 whole entry): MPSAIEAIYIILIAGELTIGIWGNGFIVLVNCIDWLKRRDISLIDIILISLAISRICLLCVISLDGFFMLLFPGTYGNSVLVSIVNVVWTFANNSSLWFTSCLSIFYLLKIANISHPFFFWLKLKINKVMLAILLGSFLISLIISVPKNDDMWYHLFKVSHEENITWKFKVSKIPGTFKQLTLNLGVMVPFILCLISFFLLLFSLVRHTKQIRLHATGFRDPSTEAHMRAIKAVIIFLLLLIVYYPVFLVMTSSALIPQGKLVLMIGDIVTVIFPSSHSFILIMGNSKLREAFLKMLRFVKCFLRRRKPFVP
Sequence of hT2R10 (Q9NYW0 whole entry): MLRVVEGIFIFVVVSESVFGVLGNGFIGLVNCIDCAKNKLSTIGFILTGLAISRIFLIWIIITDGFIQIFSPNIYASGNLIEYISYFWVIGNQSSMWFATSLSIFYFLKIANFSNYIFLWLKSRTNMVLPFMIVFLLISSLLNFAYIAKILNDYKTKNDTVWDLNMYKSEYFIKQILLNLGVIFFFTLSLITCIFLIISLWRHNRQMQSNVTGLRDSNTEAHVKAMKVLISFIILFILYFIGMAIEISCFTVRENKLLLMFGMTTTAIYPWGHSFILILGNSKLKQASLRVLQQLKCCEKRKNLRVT
Sequence of hT2R3 (Q9NYW6 whole entry): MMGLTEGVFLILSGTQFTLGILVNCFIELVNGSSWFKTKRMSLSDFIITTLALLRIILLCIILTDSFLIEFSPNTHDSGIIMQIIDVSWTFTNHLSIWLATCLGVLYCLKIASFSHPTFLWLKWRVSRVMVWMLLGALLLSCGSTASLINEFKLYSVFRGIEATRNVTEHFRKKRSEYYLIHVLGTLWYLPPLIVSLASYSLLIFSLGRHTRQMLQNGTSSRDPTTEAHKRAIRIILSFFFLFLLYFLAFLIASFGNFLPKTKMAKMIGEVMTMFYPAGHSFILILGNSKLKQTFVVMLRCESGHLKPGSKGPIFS
Sequence of hT2R61 (P59537 whole entry): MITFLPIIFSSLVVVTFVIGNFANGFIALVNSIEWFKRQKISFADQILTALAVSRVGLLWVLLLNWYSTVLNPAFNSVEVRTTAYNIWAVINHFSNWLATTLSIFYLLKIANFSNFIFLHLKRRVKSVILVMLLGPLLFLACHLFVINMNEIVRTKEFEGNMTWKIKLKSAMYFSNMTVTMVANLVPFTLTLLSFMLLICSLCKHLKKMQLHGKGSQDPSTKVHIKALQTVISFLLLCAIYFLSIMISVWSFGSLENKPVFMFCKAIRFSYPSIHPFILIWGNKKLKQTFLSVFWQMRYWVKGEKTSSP
Sequence of hT2R7 (Q9NYW3 whole entry): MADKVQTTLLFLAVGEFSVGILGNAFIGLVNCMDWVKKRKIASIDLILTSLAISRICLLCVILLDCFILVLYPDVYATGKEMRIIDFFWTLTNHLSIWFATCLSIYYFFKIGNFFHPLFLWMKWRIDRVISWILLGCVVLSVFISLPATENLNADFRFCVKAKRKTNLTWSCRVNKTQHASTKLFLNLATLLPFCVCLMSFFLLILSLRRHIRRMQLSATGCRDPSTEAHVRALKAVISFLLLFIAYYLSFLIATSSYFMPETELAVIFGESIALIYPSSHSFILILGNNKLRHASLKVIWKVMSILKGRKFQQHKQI
Sequence of hT2R5 (Q9NYW4 whole entry): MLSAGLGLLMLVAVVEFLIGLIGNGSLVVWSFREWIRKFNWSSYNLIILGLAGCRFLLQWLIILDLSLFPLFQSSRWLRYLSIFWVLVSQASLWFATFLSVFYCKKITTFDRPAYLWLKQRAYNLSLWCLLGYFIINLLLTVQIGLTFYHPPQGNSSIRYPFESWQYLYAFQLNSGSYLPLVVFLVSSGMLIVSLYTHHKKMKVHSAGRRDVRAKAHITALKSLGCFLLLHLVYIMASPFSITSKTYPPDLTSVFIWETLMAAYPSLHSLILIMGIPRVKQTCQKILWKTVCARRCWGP
Sequence of hT2R4 (Q9NYW5 whole entry): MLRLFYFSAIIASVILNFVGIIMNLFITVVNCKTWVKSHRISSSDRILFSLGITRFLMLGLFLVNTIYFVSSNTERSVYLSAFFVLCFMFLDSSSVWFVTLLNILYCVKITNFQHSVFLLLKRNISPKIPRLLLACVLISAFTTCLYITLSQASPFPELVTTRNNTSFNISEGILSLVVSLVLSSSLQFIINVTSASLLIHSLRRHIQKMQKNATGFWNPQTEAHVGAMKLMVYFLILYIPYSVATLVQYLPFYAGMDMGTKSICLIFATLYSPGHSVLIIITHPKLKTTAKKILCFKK

Structure (SMILES)	inhibition at 25 µM (hT2R7; [3]) [%]	screening result against bitter receptor 63 (hT2R63)	inhibition at 25 µM (hT2R9; [4]) [%]	screening result against bitter receptor 55 (hT2R55)	inhibition at 25 µM (hT2R16; [5]) [%]	inhibition at 25 µM (hT2R14 [1]; [6]) [%]	screening result against bitter receptor 44 (hT2R44)	IC50 (hT2R14 [2]) [µM]	inhibition at 25 µM (hT2R71; [7]) [%]	screening result against bitter receptor 65 (hT2R65)	inhibition at 25 µM (hT2R3; [8]) [%]	inhibition at 25 µM (hT2R10; [9]) [%]	inhibition at 25 µM (hT2R64; [10]) [%]	inhibition at 25 µM (hT2R5) [%]	inhibition at 25 µM (hT2R75) [%]	inhibition at 25 µM (hT2R13; [11]) [%]	inhibition at 25 µM (hT2R7; [12]) [%]	inhibition of bitter receptor 63 (hT2R63)	inhibition at 25 µM (hT2R14 [1]; [13]) [%]	inhibition of bitter receptor 44 (hT2R44)	also measured
Cc1ccc(S(=O)(=O)N(Cc2ccc(F)cc2)CC2CCC(C(=O)O)CC2)cc1 (centres unmarked) [Example 5-20, 4-((N-(4-fluorobenzyl)-4-methylphenylsulfonamido)methyl)-cyclohexanecarboxylic acid]	20 to 40	++ (40% to 60% inhibition = ++)	20 to 40	++++ (80% or greater inhibition = ++++)	40 to 60	> 80	+++ (60% to 80% inhibition = +++)	0.083	40 to 60	+ (20% to 40% inhibition = +)	> 80	40 to 60	60 to 80	20 to 40	40 to 60	20 to 40	–	–	–	–	inhibition at 25 µM (hT2R61; receptor activated to EC80 with the corresponding agonist, read-out: screening result against bitter receptor 61): > 80%
Cn1c(=O)c(=O)n(C)c2cc(S(=O)(=O)Nc3ccc(Cc4ccccn4)cc3)ccc21 [Example 6-4, 1,4-dimethyl-2,3-dioxo-N-(4-(pyridin-2-ylmethyl)phenyl)-1,2,3,4-tetrahydroquinoxaline-6-sulfonamide]	–	–	–	–	–	–	–	6.14	–	–	–	–	–	–	–	–	20 to 40	+ (20% to 40% inhibition = +)	> 80	+ (20% to 40% inhibition = +)	inhibition at 25 µM (hT2R9; receptor activated to EC80 with agonist, read-out: inhibition of bitter receptor 9): 20 to 40%; inhibition at 25 µM (hT2R61; [14]): 20 to 40%; inhibition at 25 µM (hT2R13; [15]): > 80%
COc1ccc(CN(Cc2ccc(OC)cc2)S(=O)(=O)c2ccc(C(=O)O)cc2)cc1 [Example 5-30, 4-(N,N-bis(4-methoxybenzyl)sulfamoyl)benzoic acid]	20 to 40	++++ (80% or greater inhibition = ++++)	20 to 40	++++ (80% or greater inhibition = ++++)	20 to 40	> 80	+++ (60% to 80% inhibition = +++)	4.14	60 to 80	–	40 to 60	40 to 60	> 80	20 to 40	20 to 40	20 to 40	–	–	–	–	inhibition at 25 µM (hT2R51; receptor activated to EC80 with the corresponding agonist, read-out: screening result against bitter receptor 51): 40 to 60%
CCCOc1ccc(CN(Cc2ccccc2)S(=O)(=O)c2ccc(C(=O)O)cc2)cc1 [Example 5-109, 4-(N-benzyl-N-(4-propoxybenzyl)sulfamoyl)benzoic acid]	–	–	–	–	–	–	–	–	–	–	–	–	–	–	–	–	20 to 40	++ (40% to 60% inhibition = ++)	> 80	++ (40% to 60% inhibition = ++)	inhibition of bitter receptor 55 (hT2R55; [16]): ++++ (80% or greater inhibition = ++++); inhibition at 25 µM (hT2R16; receptor activated to EC80 with agonist, read-out: inhibition of bitter receptor 16): 20 to 40%; inhibition at 25 µM (hT2R71; receptor activated to EC80 with agonist, read-out: inhibition of bitter receptor 71): 60 to 80%; inhibition at 25 µM (hT2R61; [14]): 60 to 80%; inhibition of bitter receptor 65 (hT2R65; [16]): +++ (60% to 80% inhibition = +++); inhibition at 25 µM (hT2R3; receptor activated to EC80 with agonist, read-out: inhibition of bitter receptor 3): 40 to 60%; inhibition at 25 µM (hT2R10; HEK293, read-out: inhibition of bitter receptor 10, compound at 25 μM, receptor activated to EC80 with agonist): 40 to 60%; inhibition of bitter receptor 67 (hT2R67; [16]): + (20% to 40% inhibition = +); inhibition of bitter receptor 54 (hT2R54; [16]): + (20% to 40% inhibition = +); inhibition at 25 µM (hT2R64; receptor activated to EC80 with agonist, read-out: inhibition of bitter receptor 64): > 80%; inhibition at 25 µM (hT2R4): 40 to 60%; inhibition at 25 µM (hT2R51; receptor activated to EC80 with agonist, read-out: inhibition of bitter receptor 51): 40 to 60%; inhibition at 25 µM (hT2R13; [15]): 20 to 40%
COc1ccc(CN(Cc2ccc(F)cc2)S(=O)(=O)c2ccc(C(=O)O)cc2)cc1 [Example 5-10, 4-(N-(4-fluorobenzyl)-N-(4-methoxybenzyl)sulfamoyl)benzoic acid]	40 to 60	++++ (80% or greater inhibition = ++++)	40 to 60	+++ (60% to 80% inhibition = +++)	> 80	–	++ (40% to 60% inhibition = ++)	1.97	–	++++ (80% or greater inhibition = ++++)	–	–	–	–	–	40 to 60	–	–	–	–	screening result against bitter receptor 14 (hT2R14 [1]; [17]): ++++ (80% or greater inhibition = ++++); screening result against bitter receptor 71 (hT2R71; [17]): +++ (60% to 80% inhibition = +++); screening result against bitter receptor 61 (hT2R61; [17]): ++++ (80% or greater inhibition = ++++); screening result against bitter receptor 3 (hT2R3; [17]): +++ (60% to 80% inhibition = +++); screening result against bitter receptor 10 (hT2R10; [17]): ++++ (80% or greater inhibition = ++++); screening result against bitter receptor 67 (hT2R67; [18]): +++ (60% to 80% inhibition = +++); screening result against bitter receptor 54 (hT2R54; [18]): ++++ (80% or greater inhibition = ++++); screening result against bitter receptor 64 (hT2R64; [17]): +++ (60% to 80% inhibition = +++); screening result against bitter receptor 51 (hT2R51; [17]): ++++ (80% or greater inhibition = ++++); screening result against bitter receptor 75 (hT2R75; compound at 25 μM): + (20% to 40% inhibition = +)
